The values below come from ChEMBL document CHEMBL1134170, “Securiosides A and B, novel acylated triterpene bisdesmosides with selective cytotoxic activity against M-CSF-stimulated macrophages” (Bioorg Med Chem Lett, 2001).

Activity calls are given as the source filed them. No cut-off for these calls is given here.

For one experiment, the species on record is Mus musculus. Nature of the experiment: Cytotoxic activity against M-CSF-stimulated macrophages (from male mice). It is filed as functional.
For a further experiment, the species on record is Ovis aries. The experiment in a line: Ability to hemolyze sheep erythrocytes and induce change in macrophage morphology and DNA fragmentation at a concentration of 10 ug/mL; inactive. It is filed as functional.

By IC50 is commonly meant the concentration at which inhibition is half-maximal. In the experiment filed under Mus musculus, `COc1ccc(/C=C/C(=O)O[C@H]2[C@@H](O[C@H]3O[C@H](COC(C)=O)[C@H](O)[C@H](O)[C@H]3O)[C@@H](O[C@H]3O[C@H](C)[C@@H](O[C@H]4OC[C@H](O)[C@H](O)[C@H]4O)[C@@H](O)[C@@H]3O)[C@H](OC(=O)[C@]34CCC(C)(C)C[C@H]3C3=CC[C@@H]5[C@@]6(C)C[C@H](O)[C@H](O[C@@H]7O[C@@H](CO)[C@@H](O)[C@H](O)[C@@H]7O)[C@@](C)(C(=O)O)C6CC[C@@]5(C)[C@]3(CO)CC4)O[C@@H]2C)cc1OC` (some centres undefined) [SECURIOSIDE A] returned an IC50 of less than 250 nM. Also, in the experiment listed under Ovis aries, the Hemolysis entry is “inactive”.
The matching figures for `COc1ccc(/C=C/C(=O)O[C@H]2[C@H](O)[C@@H](O[C@H]3O[C@H](C)[C@@H](O[C@H]4OCC(O[C@H]5O[C@H](CO)[C@@H](O)[C@@H](O)[C@H]5O)C(O[C@H]5O[C@H](CO)[C@H](O)[C@@H](O)[C@H]5O)[C@H]4O)[C@@H](O)[C@@H]3O)[C@@H](OC(=O)[C@]34CCC(C)(C)C[C@H]3C3=CC[C@@H]5[C@@]6(C)C[C@H](O)[C@H](O[C@@H]7O[C@@H](CO)[C@@H](O)[C@H](O)[C@@H]7O)[C@@](C)(C(=O)O)C6CC[C@@]5(C)[C@]3(CO)CC4)O[C@@H]2C)cc1OC` (some centres undefined) [SECURIOSIDE B]: less than 250 nM and “inactive”.
